Results taken from US10294228B2, “Breathing control modulating compounds, and methods of making and using same” (NEURAD LTD., priority 2015, dated 2019).
“Also recorded” adds a separate entry of the source. Where a name gives a salt, the structure may show the parent alone.

Key:
rats = assay: Sleep quantity, architecture and quality by EEG/EMG telemetry; type: in vivo, rat; conditions: 10 mg/kg PO
Method: All surgical and plethysmographic studies were approved by the IACUC committee of Galleon Pharmaceuticals. The study used rats implanted with dual biopotential electrodes that permitted continuous and simultaneous telemetric recordings of electroencephalogram (EEG) and electromyogram (EMG) waveforms. Three treatment conditions were assessed for their effects on sleep quantity, architecture, and quality: baseline (drug-naïve), (31a) (10 mg/kg PO) and vehicle (equal volume PO). Baseline and (31a) treatment study days were randomized. However, vehicle alone was assessed after each rat had completed drug nave and compound (31a) evaluations.
Standard aseptic technique was used for all surgical procedures. […]
Rats with implanted telemeters were allowed to remain in their home cages during data collection. […] EEG and EMG waveforms were recorded between 8 am and 3 pm each study day. […] For each rat, the three telemetry signals (EEG, EMG, and temperature) were routed from the receiver to the PowerLab and recorded using LabChart. […]
The principal aspects of these analyses were to quantify the magnitude of the EMG signal (i.e., the animals activity level) and the relative densities of EEG delta waves (0.5 to 4 Hz; predominant in NREM sleep) and EEG theta waves (6 to 10 Hz; predominant in REM sleep) during each 4-second epoch. […]

[1] = system: anesthetized supine rats with spontaneous obstructive apneas; assay: Spontaneous obstructive apnea model; type: in vivo, rat
Method: Two rodent models of obstructive apnea were used: one that modeled spontaneous obstructions (spontaneous obstructive apnea model) which become progressively worse over time, and another (evoked obstructive apnea model) where the investigator retained control over the variables that define OSA severity, such as apnea frequency (f OA) and apnea duration (OA t).
The majority of studies were conducted using the spontaneous obstructive apnea model, where rats were positioned in dorsal recumbency (supine), and permitted to breathe spontaneously on room air. Air flow was measured continuously by whole-body plethysmography. […] OA were defined as periods of no air flow for more than 2 respiratory cycles accompanied by efforts to breathe (e.g., increased transthoracic esophageal inspiratory pressure). After neck flexion, eupnea became increasingly interrupted by clusters of upper airway obstructions (f OA 30±3 hr^−1 (mean±SEM), range: 13 to 94 hr^−1; OA t 11±3 s, range: 6 to 15 s). OA severity was further quantified by the peak change in hemoglobin oxygen saturation during an obstruction (ΔSpO2: −20±1%, range: −11 to −31%). Clustered OAs were often separated by long periods of eupneic breathing, which presumably returned when activation of a relevant afferent/effector reflex (e.g., chemoreceptor driven increased motor drive to the genioglossus muscle) reached a threshold necessary to reestablish a patent upper airway.
All animal experiments were performed according to protocols approved by the Institutional Animal Care and Use Committee (IACUC) at Galleon Pharmaceuticals, Inc. All experimental procedures were performed under general anesthesia. All experiments were non-survival procedures and animals were euthanized at the conclusion of the experiment prior to the animal recovering from anesthesia. Two rodent models of obstructive apnea were used, one that modeled spontaneous obstructions that become progressively worse over time (Spontaneous Obstructive Apnea Model), and another where the investigator retained control over the parameters that defined OSA severity, such as f OA, and OA t, and by controlling these directly also controlling of the magnitude of oxy-hemoglobin desaturation (Evoked Obstructive Apnea Model).
Rats were initially anesthetized in a rodent anesthesia induction chamber using 3% (dial setting) isoflurane in 97% oxygen (O2) for surgical instrumentation. When rats had become recumbent they were removed from the chamber and placed in dorsal recumbency (supine) on a heating pad. Anesthesia was maintained with 2% isoflurane in 98% oxygen and rats were permitted to breathe spontaneously on room air. After instrumentation, isoflurane was slowly discontinued and urethane (1.5 to 1.8 g/kg, IV) administered to maintain anesthesia without interruption. Supplemental oxygen was discontinued at this time.
The femoral artery was cannulated to permit continuous recording of arterial blood pressure and intermittent sampling of blood for pH and blood gas analyses, and single time point quantification of test article plasma concentrations. The femoral vein was cannulated to permit test compound administration and fluid support. The arterial cannula was connected to a heparinized saline filled pressure transducer. The arterial pressure waveforms were sampled at 2K/second and band-pass filtered between 0-1000 Hz. […]

SMILES: CCCNc1nc(NC)nc2c(NCC(C)(C)O)nc(NC)nc12 [Compound 31a, 1-(2,6-Bis-methylamino-8-propylamino-pyrimido[5,4-d]pyrimidin-4-ylamino)-2-methyl-propan-2-ol Hydrochloride]
- effects on sleep quantity, architecture, or quality (rats): not associated with any statistically significant effects
- effects on sleep architecture (rats; compared to baseline (drug-naive), FIG. 24, Hydrochloride, 10 mg/kg): No significant differences; also recorded: does not produce effects
- SpO2 desaturations ([1]; FIG. 18, model not named in the legend): reduction
- frequency of obstructive apneas (OA) ([1]; FIG. 19, model not named in the legend): reduction
- arterial oxygen content deficit ([1]; FIG. 20, model not named in the legend): reduction
- upper airway (total genioglossus EMG amplitude) response to spontaneous obstructive apneas ([1]; FIG. 22): increase
- upper airway response (genioglossus activity) to spontaneous obstructive apneas ([1]; IV infusion, FIG. 23): dose-dependently increases
